From US20100267712A1, “ISOINDOLINE COMPOUNDS FOR THE TREATMENT OF SPINAL MUSCULAR ATROPHY AND OTHER USES” (The United States of America, as represented by the …, priority 2007, published 2010)

Tested on: SMN2-linked luciferase-reporter gene construct
Assay: SMN Splice Reporter Assay (SMN2-linked luciferase reporter)
Type: cell-based
Conditions: for EC50: cervical carcinoma cell lines, SMN2 splice luciferase reporter; for Fold Increase: fold-increase of luciferase over baseline reading of transformed cells without any test compound
Description: As previously discussed, SMN1 is the gene deleted in SMA patients; the SMN2 gene remains intact in both SMA and normal patients. Therefore, SMN2 provides a potential means of increasing SMN production in SMA patients and is, thus, a target for developing SMA treatments. SMN2 is identical to SMN1 with the exception of a single base pair change that results in reduced expression of the gene. The reduction is based on the creation of an alternatively spliced RNA that produces an unstable protein carrying a deletion of exon 7. Both full length SMN and exon 7 deleted SMN are produced by the SMN2 gene via alternative RNA splicing, but the major product is the unstable deleted form.
Cervical carcinoma cell lines were transformed with a SMN2-linked luciferase-reporter gene construct. The reporter is designed to detect shifts in the alternative splicing of SMN2 sequences. In particular, the reporter is constructed as a fusion of the alternatively spliced sequences of the SMN2 gene and the luciferase gene. Luciferase sequences are in the correct translational reading frame only when the SMN2 sequences are spliced according to the normal SMN1 mechanism (e.g., splicing to include exon 7), which allows for translation of the stable SMN protein. Compounds were tested in the assay by administering the compound to the cell line and detecting an increase in the luciferase activity. The assay is described in greater detail in Zhang et al., Gene Ther., 8: 1532-8 (2001). Compounds were administered as described in Lunn et al, Chem. & Biol, 11: 1489-1493 (2004).
The results are reported as a fold-increase over a baseline reading of transformed cells without any test compound. The EC50 value also is reported in Table 1 for some exemplary compounds of the invention.

SMILES | EC50 [nM] | Fold Increase
COCn1ccc2ccc(N3Cc4ccc(OC)cc4C3=O)cc21 [Example 120431] | 120 | 1.311
COc1ccc2c(c1)C(=O)N(c1ccc3c(c1)n(C)c(=O)n3C)C2 [Example 120432] | 830 | 1.234
COc1ccc2c(c1)C(=O)N(c1ccc3[nH]c(=O)[nH]c3c1)C2 [Example 120433] | 977 | 1.296
Cc1ccc2c(c1)CN(c1ccc3ccn(C)c3c1)C2=O [Example 120434] | 54 | 1.708
Cn1ccc2ccc(N3Cc4ccccc4C3=O)cc21 [Example 120435] | 640 | 1.585
Cn1ccc2ccc(N3Cc4ccc(OC(F)F)cc4C3=O)cc21 [Example 120591] | 509 | 1.709
Cn1ccc2cc(N3Cc4cc(Br)ccc4C3=O)ccc21 [Example 120592] | 112 | 1.51
COc1ccc2c(c1)C(=O)N(c1ccc3sc(C)nc3c1)C2 [Example 120593] | 14 | 1.322
COc1ccc2c(c1)C(=O)N(c1ccc3c(c1)c(C)c(C)n3C)C2 [Example 120597] | 777 | 1.434
COc1ccc2c(c1)C(=O)N(c1ccc3ncn(C)c3c1)C2 [Example 120598] | 183 | 1.552
COc1ccc2c(c1)C(=O)N(c1ccc3ccn(CC#N)c3c1)C2 [Example 120603] | 2770 | 1.199
Cn1ccc2cc(N3Cc4cc(Cl)ccc4C3=O)ccc21 [Example 120778] | 131 | 1.492
Cn1ccc2ccc(N3Cc4cc(Cl)ccc4C3=O)cc21 [Example 120779] | 317 | 1.704
Cc1ccc2c(c1)CN(c1ccc3c(ccn3C)c1)C2=O [Example 120780] | – | 1.344
COc1ccc2c(c1)CN(c1ccc3c(ccn3C)c1)C2=O [Example 120782] | 184 | 1.49
COc1ccc2c(c1)C(=O)N(c1ccc3scnc3c1)C2 [Example 120785] | 59 | 1.353
Cn1ccc2cc(N3Cc4c(Cl)cccc4C3=O)ccc21 [Example 120786] | 679 | 1.376
O=C1c2cc3c(cc2CN1c1ccc2ncccc2c1)OCCO3 [Example 120787] | 15 | 1.807
Cn1ccc2ccc(N3Cc4c(Cl)cccc4C3=O)cc21 [Example 120788] | – | 1.25

SMILES | EC50 [nM] | Fold Increase
COc1cc2c(cc1OC)C(=O)N(c1ccc3c(ccn3C)c1)C2 [Example 120789] | 9790 | 1.427
Cn1ccc2ccc(N3Cc4cccc(Cl)c4C3=O)cc21 [Example 120792] | 238 | 1.642
Cn1ccc2cc(N3Cc4cccc(Cl)c4C3=O)ccc21 [Example 120793] | 361 | 1.395
Cn1ccc2ccc(N3Cc4ccc(-c5ccccc5)cc4C3=O)cc21 [Example 120949] | 373 | 1.816
Cn1ccc2ccc(N3Cc4ccc(Cl)cc4C3=O)cc21 [Example 120950] | 984 | 1.482
COc1ccc2c(c1)CN(c1ccc3ncccc3c1)C2=O [Example 120951] | 135 | 1.769
Cc1cccc2c1CN(c1ccc3c(ccn3C)c1)C2=O [Example 120952] | 414 | 1.374
Cc1cccc2c1CN(c1ccc3ccn(C)c3c1)C2=O [Example 120953] | 1160 | 1.495
COc1cc2c(cc1OC)C(=O)N(c1ccc3ncccc3c1)C2 [Example 120954] | 2040 | 1.356
COc1cccc2c1CN(c1ccc3ncccc3c1)C2=O [Example 120956] | 1250 | 1.329
COc1ccc2c(c1)C(=O)N(c1ccc3ocnc3c1)C2 [Example 120957] | – | 1.254
CC(=O)Nc1cccc2c1CN(c1ccc3c(ccn3C)c1)C2=O [Example 121074] | – | 1.078
CC(=O)Nc1cccc2c1CN(c1ccc3ccn(C)c3c1)C2=O [Example 121075] | – | 1.087
COc1ccc2c(c1)C(=O)N(c1ccc3c(ccn3C(C)=O)c1)C2 [Example 121076] | 49 | 1.295
COc1ccc2c(c1)C(=O)N(c1ccc3c(c1)CC(=O)N3)C2 [Example 121077] | – | 1.107
COc1ccc2c(c1)C(=O)N(c1cnc3[nH]ccc3c1)C2 [Example 121078] | – | 1.246
COc1ccc2c(c1)C(=O)N(c1cnc3c(ccn3C)c1)C2 [Example 121079] | 42 | 1.385
COc1ccc2c(c1)C(=O)N(c1ccc3ccn(CCN)c3c1)C2 [Example 121080] | – | 1.163
CC(=O)Nc1cccc2c1C(=O)N(c1ccc3c(ccn3C)c1)C2 [Example 121081] | 177 | 1.581

SMILES | EC50 [nM] | Fold Increase
CC(=O)Nc1cccc2c1C(=O)N(c1ccc3ccn(C)c3c1)C2 [Example 121082] | 825 | 1.496
COc1ccc2c(c1)C(=O)N(c1ccc3ccn(CCNC(C)=O)c3c1)C2 [Example 121083] | – | 1.083
Cn1ccc2ccc(N3Cc4ccc(N)cc4C3=O)cc21 [Example 121256] | 1590 | 1.638
Cn1ccc2ccc(N3Cc4cc(N)ccc4C3=O)cc21 [Example 121257] | 175 | 1.856
COc1ccc2c(c1)C(=O)N(c1ccc3ccn(C(C)=O)c3c1)C2 [Example 121260] | 35 | 1.414
COc1ccc2c(c1)C(=O)N(c1ccc3ncoc3c1)C2 [Example 121262] | 336 | 1.317
COc1ccc2c(c1)C(=O)N(c1ccc3c(ccn3C)n1)C2 [Example 121263] | 161 | 1.39
Cc1ccc2c(c1)C(=O)N(c1ccc3ccn(C)c3c1)C2 [Example 121504] | 422 | 1.742
CC(=O)Nc1ccc2c(c1)CN(c1ccc3ccn(C)c3c1)C2=O [Example 121506] | 1040 | 1.488
Cc1ccc2c(c1)C(=O)N(c1ccc3c(ccn3C)c1)C2 [Example 121507] | 34 | 1.411
CC(=O)Nc1ccc2c(c1)CN(c1ccc3c(ccn3C)c1)C2=O [Example 121508] | – | 1.201
COc1cccc2c1CN(c1ccc3sccc3c1)C2=O [Example 121509] | 3710 | 1.564
Cn1ccc2cc(N3Cc4ccc(O)cc4C3=O)ccc21 [Example 121510] | 159 | 1.542
COc1ccc2c(c1)CN(c1ccc3ccsc3c1)C2=O [Example 121511] | 113 | 1.808
O=C1c2cc(OC(F)F)ccc2CN1c1ccc2ccsc2c1 [Example 121512] | 226 | 1.766
COc1cccc2c1CN(c1ccc3ccsc3c1)C2=O [Example 121513] | 749 | 1.612
COc1ccc2c(c1)C(=O)N(c1cc3cc[nH]c3cn1)C2 [Example 121514] | – | 1.172
COc1ccc2c(c1)C(=O)N(c1ccc3[nH]ccc3n1)C2 [Example 121515] | 222 | 1.24
COc1ccc2c(c1)CN(c1ccc3sccc3c1)C2=O [Example 121643] | 45 | 1.778
